Measurements as given in US20240122180A1, “FUNGICIDAL HALOMETHYL KETONES AND HYDRATES AND THEIR MIXTURES” (FMC Corporation, priority 2020, published 2024).

Key:
[1] = test system: Phakopsora pachyrhizi (the causal agent of Asian soybean rust); assay: Test A: preventive spray on soybean seedlings, visual disease rating (100 = 100% control; * 50 ppm, ** 10 ppm, *** 250 ppm); type: in vivo; details: 100 = 100% disease control
How it was run: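 Preventive test: one day after spraying compound (acetone/water suspension, 250 ppm PEG400), seedlings received rust spore inoculum, 24 h in saturated air then 8 days in growth chamber, both at 22 °C. Disease control scored visually, 100 = complete, 0 = none, relative to untreated controls.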

[2] = test system: Puccinia recondita f. sp. tritici (the causal agent of wheat leaf rust); assay: Test B: preventive spray on wheat seedlings, disease rating (100 = 100% control; * 50 ppm, ** 10 ppm, *** 250 ppm); type: in vivo; details: 100 = 100% disease control
How it was run: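 Preventive test: Puccinia recondita f. sp. tritici spores were inoculated one day after run-off spraying of wheat seedlings with test suspension (acetone/water 50/50, 250 ppm PEG400). After 24 h in saturated air and 6 days in a growth chamber, both at 20° C, control was scored 0–100 versus untreated plants.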

[3] = 10 ppm test suspension, soybean seedlings
[4] = 10 ppm test suspension, wheat seedlings
[5] = 50 ppm test suspension, soybean seedlings
[6] = 50 ppm test suspension, wheat seedlings
[7] = 10 ppm test suspension, 0 = no control
[8] = 50 ppm test suspension, 0 = no control

Compound: CCOC(=O)c1cnn(Cc2ccc(OCC(O)(O)C(F)(F)F)cc2)c1 [compound 227]
- Test A disease control rating [1, 3]: 99%
- Test B disease control rating [2, 4]: 55%

Compound: C=C(C)COC(=O)c1cnn(Cc2ccc(OCC3(C(F)(F)F)OCCO3)cc2)c1 [compound 228]
- Test A disease control rating [1, 3]: 100%
- Test B disease control rating [2, 4]: 0%

Compound: CCO/C(=C\Oc1ccc(C(=O)OC)cc1)C(F)(F)F [compound 230]
- Test A disease control rating [1, 3]: 0%
- Test B disease control rating [2, 4]: 0%

Compound: CCOC(=O)c1ccn(Cc2ccc(OCC3(C(F)(F)F)OCCO3)cc2)n1 [compound 232]
- Test A disease control rating [1, 3]: 98%
- Test B disease control rating [2, 4]: 0%

Compound: CCOC(=O)c1ccn(Cc2ccc(OCC(O)(O)C(F)(F)F)cc2)n1 [compound 233]
- Test A disease control rating [1, 5]: 100%
- Test B disease control rating [2, 6]: 96%

Compound: CCOC(=O)c1ccnn1Cc1ccc(OCC(O)(O)C(F)(F)F)cc1 [compound 234]
- Test A disease control rating [1, 5]: 100%
- Test B disease control rating [2, 6]: 92%

Compound: CON(Cc1ccc(OCC2(C(F)(F)F)OCCO2)cc1)C(=O)C(C)C [compound 235]
- Test A disease control rating [1, 3]: 97%
- Test B disease control rating [2, 4]: 0%

Compound: CON(Cc1ccc(OCC2(C(F)(F)F)OCCO2)cc1)C(=O)C1CC1 [compound 236]
- Test A disease control rating [1, 3]: 75%
- Test B disease control rating [2, 4]: 0%

Compound: CCCC(=O)N(Cc1ccc(OCC2(C(F)(F)F)OCCO2)cc1)OC [compound 237]
- Test A disease control rating [1, 3]: 97%
- Test B disease control rating [2, 4]: 0%

Compound: CON(Cc1ccc(OCC2(C(F)(F)F)OCCO2)cc1)C(=O)OC(C)(C)C [compound 238]
- Test A disease control rating [1, 3]: 73%
- Test B disease control rating [2, 4]: 0%

Compound: N#CCc1ccc(OCC2(C(F)(F)F)OCCO2)cc1 [compound 239]
- Test A disease control rating [1, 3]: 0%
- Test B disease control rating [2, 4]: 0%

Compound: CCOCc1cnn(Cc2ccc(OCC3(C(F)(F)F)OCCO3)cc2)c1 [compound 240]
- Test A disease control rating [1, 3]: 99%
- Test B disease control rating [2, 4]: 0%

Compound: CCOC(=O)c1ccnn1Cc1ccc(OC=C(OCC)C(F)(F)F)cc1 [compound 241]
- Test A disease control rating [1, 3]: 0%
- Test B disease control rating [2, 4]: 0%

Compound: O=C(OCC1CCC1)c1cnn(Cc2ccc(OCC3(C(F)(F)F)OCCO3)cc2)c1 [compound 249]
- Test A disease control rating [1, 3]: 100%
- Test B disease control rating [2, 4]: 0%

Compound: CCOC(=COc1ccc(Cn2nccc2C(=O)OC)cc1)C(F)(F)F [compound 250]
- Test A disease control rating [1, 3]: 0%
- Test B disease control rating [2, 4]: 0%

Compound: CCOC(=COc1ccc(Cn2ccc(C(=O)OC)n2)cc1)C(F)(F)F [compound 251]
- Test A disease control rating [1, 3]: 100%
- Test B disease control rating [2, 4]: 9%

Compound: CCOC(=COc1ccc(Cn2nccc2C(=O)OC(C)(C)C)cc1)C(F)(F)F [compound 252]
- Test A disease control rating [1, 3]: 0%
- Test B disease control rating [2, 4]: 0%

Compound: CCOC(=COc1ccc(Cn2ccc(C(=O)OC(C)(C)C)n2)cc1)C(F)(F)F [compound 253]
- Test A disease control rating [1, 3]: 0%
- Test B disease control rating [2, 4]: 0%

Compound: CCO/C(=C\Oc1ccc(Cn2ncnc2SC)cc1)C(F)(F)F [compound 260]
- Test A disease control rating [1, 7]: 0%
- Test B disease control rating [2, 7]: 0%

Compound: CCO/C(=C\Oc1ccc(Cn2cnc(SC)n2)cc1)C(F)(F)F [compound 261]
- Test A disease control rating [1, 7]: 0%
- Test B disease control rating [2, 7]: 0%

Compound: CCOC(=O)c1cnn(C(C)c2ccc(O/C=C(\OCC)C(F)(F)F)cc2)c1 (stereo not drawn) [compound 267]
- Test A disease control rating [1, 7]: 94%
- Test B disease control rating [2, 7]: 0%

Compound: CCOC(=O)C1CCN(Cc2ccc(O/C=C(\OCC)C(F)(F)F)cc2)CC1 [compound 268]
- Test A disease control rating [1, 7]: 99%
- Test B disease control rating [2, 7]: 0%

Compound: CCOC(=O)C1CCCN(Cc2ccc(O/C=C(\OCC)C(F)(F)F)cc2)C1 (stereo not drawn) [compound 269]
- Test A disease control rating [1, 7]: 100%
- Test B disease control rating [2, 7]: 0%

Compound: O=C(OCC1CCCCC1)c1cnn(Cc2ccc(OCC3(C(F)(F)F)OCCO3)cc2)c1 [compound 272]
- Test A disease control rating [1, 7]: 100%
- Test B disease control rating [2, 7]: 0%

Compound: O=C(NCC(F)(F)F)c1cnc(Cc2ccc(OCC(O)(O)C(F)(F)F)cc2)o1 [compound 274]
- Test A disease control rating [1, 7]: 48%
- Test B disease control rating [2, 7]: 0%

Compound: O=C(NCC(F)(F)F)c1cnc(Cc2ccc(OCC3(C(F)(F)F)OCCO3)cc2)s1 [compound 275]
- Test A disease control rating [1, 7]: 0%
- Test B disease control rating [2, 7]: 0%

Compound: O=C(NCC(F)(F)F)c1cnc(Cc2ccc(OCC(O)(O)C(F)(F)F)cc2)s1 [compound 277]
- Test A disease control rating [1, 7]: 50%
- Test B disease control rating [2, 7]: 45%

Compound: CCOC(=O)C1=NOC(c2ccc(O/C=C(\OCC)C(F)(F)F)cc2)C1 (stereo not drawn) [compound 278]
- Test A disease control rating [1, 8]: 94%
- Test B disease control rating [2, 8]: 0%

Compound: CCOC(=COc1ccc([N+](=O)[O-])cc1)C(F)(F)F [compound 279]
- Test A disease control rating [1, 8]: 0%
- Test B disease control rating [2, 8]: 0%

Compound: CSc1nccc(Cc2ccc(OCC3(C(F)(F)F)OCCO3)cc2)n1 [compound 281]
- Test A disease control rating [1, 8]: 95%
- Test B disease control rating [2, 8]: 98%

Compound: CS(=O)(=O)c1nccc(Cc2ccc(OCC3(C(F)(F)F)OCCO3)cc2)n1 [compound 282]
- Test A disease control rating [1, 8]: 0%
- Test B disease control rating [2, 8]: 0%

Compound: O=C(OCC1CCCC1)c1cnn(Cc2ccc(OCC3(C(F)(F)F)OCCO3)cc2)c1 [compound 284]
- Test A disease control rating [1, 7]: 100%
- Test B disease control rating [2, 7]: 0%

Compound: CCOC(=O)c1cnn(CCCc2ccc(OCC(O)(O)C(F)(F)F)cc2)c1 [compound 286]
- Test A disease control rating [1, 7]: 87%
- Test B disease control rating [2, 7]: 55%

Compound: CCOC(=O)C1=NOC(Cc2ccc(OC=C(OCC)C(F)(F)F)cc2)C1 (stereo not drawn) [compound 287]
- Test A disease control rating [1, 8]: 77%
- Test B disease control rating [2, 8]: 0%

Compound: CCOC(=COc1ccc(CC2CC(C(=O)N(C)C)=NO2)cc1)C(F)(F)F (stereo not drawn) [compound 288]
- Test A disease control rating [1, 8]: 96%
- Test B disease control rating [2, 8]: 0%

Compound: CCOC(=O)C1=NOC(Cc2ccc(OCC3(C(F)(F)F)OCCO3)cc2)C1 (stereo not drawn) [compound 289]
- Test A disease control rating [1, 7]: 0%
- Test B disease control rating [2, 7]: 0%

Compound: CN(C)C(=O)C1=NOC(Cc2ccc(OCC3(C(F)(F)F)OCCO3)cc2)C1 (stereo not drawn) [compound 290]
- Test A disease control rating [1, 8]: 50%
- Test B disease control rating [2, 8]: 19%

Compound: C=CCOC(=O)c1ccn(Cc2ccc(OC=C(OCC)C(F)(F)F)cc2)n1 [compound 291]
- Test A disease control rating [1, 7]: 100%
- Test B disease control rating [2, 7]: 0%

Compound: CCCOC(=O)c1ccn(Cc2ccc(OC=C(OCC)C(F)(F)F)cc2)n1 [compound 292]
- Test A disease control rating [1, 7]: 100%
- Test B disease control rating [2, 7]: 0%

Compound: CC#CCOC(=O)c1ccn(Cc2ccc(O/C=C(\OCC)C(F)(F)F)cc2)n1 [compound 293]
- Test A disease control rating [1, 7]: 100%
- Test B disease control rating [2, 7]: 0%

Compound: CCOC(=O)c1cnn(CCCc2ccc(O/C=C(\OCC)C(F)(F)F)cc2)c1 [compound 294]
- Test A disease control rating [1, 7]: 100%
- Test B disease control rating [2, 7]: 0%

Compound: O=C(NCC(F)F)c1cnc(Cc2ccc(OCC(O)(O)C(F)(F)F)cc2)s1 [compound 295]
- Test A disease control rating [1, 8]: 99%
- Test B disease control rating [2, 8]: 80%

Compound: CCOC(=O)c1cnn(CCCc2ccc(OCC3(C(F)(F)F)OCCO3)cc2)c1 [compound 296]
- Test A disease control rating [1, 7]: 0%
- Test B disease control rating [2, 7]: 0%

Compound: CCOC(=O)c1cnn(Cc2ccc(O/C=C(\OCC)C(F)(F)F)cc2)c1 [compound 298]
- Test A disease control rating [1, 7]: 0%
- Test B disease control rating [2, 7]: 0%

Compound: CCO/C(=C\Oc1ccc(Cn2ccc(C(=O)O)n2)cc1)C(F)(F)F [compound 299]
- Test A disease control rating [1, 7]: 100%
- Test B disease control rating [2, 7]: 0%

Compound: CC#CCOC(=O)c1cnn(Cc2cccc(O/C=C(\OCC)C(F)(F)F)c2)c1 [compound 300]
- Test A disease control rating [1, 7]: 100%
- Test B disease control rating [2, 7]: 0%

Compound: CCOC(=O)c1cnn(Cc2cc(O/C=C(\OCC)C(F)(F)F)ccc2F)c1 [compound 302]
- Test A disease control rating [1, 8]: 99%
- Test B disease control rating [2, 8]: 0%

Compound: CCOC(=O)c1cnn(Cc2cccc(O/C=C(\OCC)C(F)(F)F)c2C)c1 [compound 303]
- Test A disease control rating [1, 8]: 0%
- Test B disease control rating [2, 8]: 0%

Compound: CCOC(=O)c1cnn(C(C)c2cccc(O/C=C(\OCC)C(F)(F)F)c2)c1 (stereo not drawn) [compound 304]
- Test A disease control rating [1, 8]: 96%
- Test B disease control rating [2, 8]: 0%

Compound: CCO/C(=C\Oc1ccc(Cc2ccnc(OCC(F)F)n2)cc1)C(F)(F)F [compound 306]
- Test A disease control rating [1, 8]: 96%
- Test B disease control rating [2, 8]: 68%

Compound: CCOC(=COc1ccc(Cc2ccnc(S(C)(=O)=O)n2)cc1)C(F)(F)F [compound 307]
- Test A disease control rating [1, 8]: 0%
- Test B disease control rating [2, 8]: 0%

Compound: CCOC(=COc1ccc(Cc2ccnc(SC)n2)cc1)C(F)(F)F [compound 308]
- Test A disease control rating [1, 8]: 25%
- Test B disease control rating [2, 8]: 0%

Compound: CCOC(=COc1ccc(CN2CCC(C(=O)OC)CC2)cc1)C(F)(F)F [compound 309]
- Test A disease control rating [1, 7]: 100%
- Test B disease control rating [2, 7]: 0%

Compound: CCOC(=COc1ccc(CN2CCC(C(=O)OC)C2)cc1)C(F)(F)F (stereo not drawn) [compound 310]
- Test A disease control rating [1, 7]: 100%
- Test B disease control rating [2, 7]: 0%

Compound: CCOC(=COc1ccc(CN2CCC(C#N)CC2)cc1)C(F)(F)F [compound 311]
- Test A disease control rating [1, 7]: 0%
- Test B disease control rating [2, 7]: 0%

Compound: CCOC(=COc1ccc(CN2CCC(OC)CC2)cc1)C(F)(F)F [compound 312]
- Test A disease control rating [1, 7]: 0%
- Test B disease control rating [2, 7]: 0%

Compound: CCOC(=COc1ccc(Cc2ccnc(OCC[Si](C)(C)C)n2)cc1)C(F)(F)F [compound 313]
- Test A disease control rating [1, 8]: 0%
- Test B disease control rating [2, 8]: 0%
